Data: patent EP1226809B1, “SKIN TEXTURE-IMPROVING AGENTS” (KYOWA HAKKO KOGYO CO., LTD., priority 1999, dated 2001)
Read-outs that look alike come from different tables or passages of the source.

Assays:
[1] = test system: Human neonate-derived fibroblasts; test: Measurement of collagen synthesis-promoting activity on human fibroblasts (3H-glycine incorporation); type: cell-based; details: 300 µmol/l
Procedure: 201-271, Kodansha Scientific (1986).
Human neonate-derived fibroblasts (Sanko Junyaku Co., Ltd.) were suspended in DMEM containing 10% fetal bovine serum [Virology, 8, 396 (1959)] and cultured at 37°C in 5% CO2 to the stationary phase. To the resulting culture were added ^3H-labeled glycine and a test substance, followed by further culturing for 72 hours. After 500 µmol/l phenylmethanesulfonyl fluoride (PMSF) was added to the obtained culture, the cells and the medium were collected, followed by disruption with a sonicator to extract proteins. To the extract were added 100 µmol/l bovine serum albumin (BSA) and 10% trichloroacetic acid (TCA), and the resulting mixture was centrifuged at 3000 rpm for 5 minutes to collect the precipitate. […]
After the reaction mixture was separated by ultrafiltration (molecular weight: 10,000), the radioactivity of the protein fraction in the filtrate (CDP) was measured as the amount of newly synthesized collagen. Then, the radioactivity of the protein fraction which was not filtered (NCDP) was measured, and the collagen synthesis ratio was calculated according to equation 2. The relative collagen synthesis-promoting activity (the change in collagen synthesis) was calculated according to equation 3 as the relative value of the collagen synthesis ratio in the presence of a test substance based on the control. […]

collagenase I (MMP-1) = details: 37°C, 4 hours
Procedure: Measurement of collagenase-inhibiting activity was carried out in the following manner according to the method described in Development and Application of Simple Microassay for Collagenase Activity; Nagai, et al., Inflammation, Vol. 4, p. 123-130, Nihon Igakukan (1984).
To 25 µl of a neutralization buffer (0.1 mol/l Tris hydrochloride, pH 7.5, 0.4 mol/l NaCl, 10 mmol/l CaCl2 and 0.04% NaN3) was added 25 µl of fluorescein isothiocyanate (FITC)-labeled collagen I (Cosmo Bio Co.) To the resulting mixture were further added 50 µl of collagenase I (MMP-1) (Cosmo Bio Co.) and a test sample dissolved in 10 µl of the neutralization buffer, followed by reaction at 37°C for 4 hours. To the reaction mixture was added 5 µl of a reaction terminating solution [80 mmol/l o-phenanthroline/50% (v/v) aqueous ethanol] to stop the reaction. To the resulting mixture was added 100 µl of a twice diluted neutralization buffer and the resulting mixture was allowed to stand at 35°C for 60 minutes. After cooling on ice for 5 minutes, 200 µl of 70% (v/v) aqueous ethanol was added to the mixture, followed by vigorous stirring for 5 minutes. The resulting mixture was centrifuged at 15,000 rpm at 4°C for 10 minutes to obtain the supernatant. By using a spectrophotofluorometer, the supernatant was irradiated with excitation light at 495 nm and emission light at 520 nm (A) was measured to determine the amount of decomposed collagen. The collagenase-inhibiting activity was calculated according to equation 4 by using data (B) obtained when purified water was employed in place of collagenase I and data (C) obtained when a neutralization buffer was employed in place of the test sample. Collagenase-inhibiting activity(%) = [(A)-(B)]/[(C)-(B)] × 100 [formula]

Collagenase-inhibiting activity (%) (collagenase I (MMP-1); 100 µmol/l) | Collagenase-inhibiting activity (%) (collagenase I (MMP-1); 1 mmol/l) | Collagenase-inhibiting activity (%) (collagenase I (MMP-1); 1 µmol/l) | Collagenase-inhibiting activity (%) (collagenase I (MMP-1); 10 µmol/l) | SMILES | Relative collagen synthesis-promoting activity (%) ([1]; after 72 hours of culturing, control = 100) | amount of collagen synthesized ([1]; result in words, compared with control (=100%))
69.4 | 100 | – | – | Oc1cc(O)c2c(c1)O[C@H](c1ccc(O)c(O)c1)[C@H](O)[C@H]2c1c(O)cc(O)c2c1O[C@H](c1ccc(O)c(O)c1)[C@H](O)C2 [PB2, epicatechin-(4β→8)-epicatechin] | 120.8 | increased
100 | – | 17 | 37 | Oc1cc(O)c2c(c1)O[C@H](c1ccc(O)c(O)c1)[C@H](O)[C@H]2c1c(O)cc(O)c2c1O[C@H](c1ccc(O)c(O)c1)[C@H](O)[C@H]2c1c(O)cc(O)c2c1O[C@H](c1ccc(O)c(O)c1)[C@H](O)C2 [PC1, epicatechin-(4β→ 8)-epicatechin-(4β→8)-epicatechin] | – | –
